Holding throughout (type): cell-based
One assay has as its target T1, Human PPARα (Homo sapiens, UniProt Q07869).
T1 construct: host or cells: proprietary non-human mammalian cells
T1 sequence (Q07869 1-468): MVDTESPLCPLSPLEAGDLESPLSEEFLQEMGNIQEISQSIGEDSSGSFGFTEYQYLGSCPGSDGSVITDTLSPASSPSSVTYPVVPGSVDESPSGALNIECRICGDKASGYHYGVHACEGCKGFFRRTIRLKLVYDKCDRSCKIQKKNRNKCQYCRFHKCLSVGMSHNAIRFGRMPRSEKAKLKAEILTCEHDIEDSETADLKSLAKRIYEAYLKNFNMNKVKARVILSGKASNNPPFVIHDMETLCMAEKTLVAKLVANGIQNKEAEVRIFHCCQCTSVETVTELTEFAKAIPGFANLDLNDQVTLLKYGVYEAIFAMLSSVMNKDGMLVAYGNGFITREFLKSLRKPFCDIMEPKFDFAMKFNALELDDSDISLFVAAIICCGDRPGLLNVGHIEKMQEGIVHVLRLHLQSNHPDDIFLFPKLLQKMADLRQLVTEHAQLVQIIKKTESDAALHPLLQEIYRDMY
Put plainly: Human PPARα Reporter Assay (luciferase, Indigo Biosciences). The settings on record: antagonist mode, reporter cells, overnight incubation. How it is done: Human PPARα Reporter Assay The screening of test compounds for agonist or antagonist activities against human PPARα receptors was performed using a commercial kit, Human PPARα Reporter Assay System (Indigo Biosciences, Cat. #IB00111). This nuclear receptor assay system utilizes proprietary non-human mammalian cells engineered to provide constitutive, high-level expression of Human PPARα. Because these cells incorporate a PPARα-responsive luciferase reporter gene, quantifying expressed luciferase activity provides a sensitive surrogate measure of PPARα activity in the treated cells. The primary application of this reporter assay system is in the screening of test samples to quantify any functional activity, either agonist or antagonist, that they may exert against human PPARα. […] Briefly, reporter cells are dispensed into wells of the assay plate and then immediately dosed with test compounds. Following an overnight incubation, the treatment media is discarded and Luciferase Detection Reagent (LDR) is added. The intensity of light emission from the ensuing luciferase reaction provides a sensitive measure that is directly proportional to the relative level of PPARα activation in the reporter cells.

The next assay addresses T2, human PPAR β/δ (Homo sapiens, UniProt Q03181).
T2 construct: host or cells: engineered reporter cells (analogous to the PPARα kit)
T2 sequence (Q03181 1-441): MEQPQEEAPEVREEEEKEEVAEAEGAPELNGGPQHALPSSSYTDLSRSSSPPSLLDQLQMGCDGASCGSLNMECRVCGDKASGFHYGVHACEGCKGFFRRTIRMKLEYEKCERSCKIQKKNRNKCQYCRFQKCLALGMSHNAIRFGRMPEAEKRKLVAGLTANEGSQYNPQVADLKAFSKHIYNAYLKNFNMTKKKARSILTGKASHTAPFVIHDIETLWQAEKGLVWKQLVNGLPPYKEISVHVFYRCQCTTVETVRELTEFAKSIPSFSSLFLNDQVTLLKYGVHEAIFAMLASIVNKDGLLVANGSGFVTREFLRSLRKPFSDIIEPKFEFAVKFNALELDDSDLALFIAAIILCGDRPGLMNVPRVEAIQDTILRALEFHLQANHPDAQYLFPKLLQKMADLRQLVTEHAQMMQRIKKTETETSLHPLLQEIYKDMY
Description: Human PPAR β/δ reporter assay (luciferase, Indigo Biosciences kit). The settings on record: antagonist mode, agonist at ~EC80; read-out: PPARδ Luciferase IC50. How it is done: (§1) Target Selectivity Assays
(§2) To determine species selectivity, a Mouse PPARα Reporter Assay System was used (Indigo Biosciences, Cat. #M00111). Activity of test compounds to antagonize or agonize other isoforms of human PPAR, for example β/δ and γ, were assessed using the corresponding kits from Indigo Biosciences (Cat. #IB00121 and #IB00101, respectively). In addition to PPAR activity, compounds were also screened for activity against other nuclear hormone receptors including Estrogen Receptor β, Glucocorticoid Receptor and Thyroid Receptor β using commercially available kits (Indigo Biosciences, Cat. #IB00411, IB00201 and IB01101, respectively). Each assay system from Indigo Biosciences uses technology analogous to the human PPARα kit, with the variance being that the cells used for each assay were engineered to over-express the receptor of interest. In addition, the appropriate receptor agonist (included with each kit) was used at ˜EC80 for assays in which antagonist potency was being assessed.

The target of another assay is T3, human PPAR γ (Homo sapiens, UniProt P37231).
T3 sequence (P37231 1-505): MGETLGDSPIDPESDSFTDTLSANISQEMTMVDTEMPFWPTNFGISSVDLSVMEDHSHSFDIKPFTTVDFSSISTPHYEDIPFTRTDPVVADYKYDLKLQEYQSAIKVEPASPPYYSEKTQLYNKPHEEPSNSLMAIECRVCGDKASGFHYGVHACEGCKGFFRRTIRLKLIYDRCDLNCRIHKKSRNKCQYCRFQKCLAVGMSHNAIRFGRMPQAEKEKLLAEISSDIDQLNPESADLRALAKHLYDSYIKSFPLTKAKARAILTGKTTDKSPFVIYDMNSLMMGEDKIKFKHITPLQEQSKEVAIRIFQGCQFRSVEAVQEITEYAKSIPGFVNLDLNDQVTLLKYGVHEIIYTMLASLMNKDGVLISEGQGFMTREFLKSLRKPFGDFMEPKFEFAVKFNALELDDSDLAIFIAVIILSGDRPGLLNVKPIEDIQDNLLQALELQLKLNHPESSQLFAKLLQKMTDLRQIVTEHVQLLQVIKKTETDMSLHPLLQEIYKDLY
Put plainly: Human PPARγ reporter assay (Indigo Biosciences kit). As for the experimental part: as §1, §2

Setting [1] is: antagonist mode, agonist at ~EC80, read-out: PPARγ.

Structures are written as SMILES. Like-named read-outs stand apart in the source and are kept apart here.

As for `CCOc1ccc(-c2ccc(CCCc3nn(-c4ccc(C(F)(F)F)cc4)c(=O)n3-c3ccccc3CC)cc2)cc1CC(=O)O` [Example 25, 2-(4-ethoxy-4′-(3-(4-(2-ethylphenyl)-5-oxo-1-(4-(trifluoromethyl)phenyl)-4,5-dihydro-1H-1,2,4-triazol-3-yl)propyl)-[1,1′-biphenyl]-3-yl)acetic acid], the figures for the IC50 against Human PPARα, at human PPAR β/δ and on human PPAR γ (setting [1]) were 343 nM, 100 nM and 29000 nM, respectively.
As to `CCOc1ccc(-c2ccc(CCCc3nn(-c4ccc(C(F)(F)F)cc4)c(=O)n3-c3ccccc3F)cc2)cc1C(=O)O` [Example 32, 4-ethoxy-4′-(3-(4-(2-fluorophenyl)-5-oxo-1-(4-(trifluoromethyl)phenyl)-4,5-dihydro-1H-1,2,4-triazol-3-yl)propyl)-[1,1′-biphenyl]-3-carboxylic acid], the IC50 on human PPAR γ (setting [1]) stood at 63200 nM.
As to `CCOc1ccc(-c2cccc(CCCc3nn(-c4ccc(C(F)(F)F)cc4)c(=O)n3C(C)C)c2)cc1CC(=O)O` [Example 31], the IC50 at Human PPARα turned out to be 199 nM; on human PPAR β/δ it was 742 nM; on human PPAR γ (setting [1]), 56900 nM.
For `CCOc1ccc(-c2ccc(CCCc3nn(-c4ccc(C(F)(F)F)cc4)c(=O)n3C3CCCC(C)C3)cc2)cc1CC(=O)O` (stereo not drawn) [Example 6], the IC50 amounted to 135 nM against Human PPARα, 154 nM on human PPAR β/δ and 18100 nM at human PPAR γ (setting [1]).
Turning to `CCOc1ccc(-c2ccc(CCCc3nn(-c4ccccc4F)c(=O)n3-c3ccc(C(F)(F)F)cc3)cc2)cc1CC(=O)O` [Example 36, 2-(4-ethoxy-4′-(3-(1-(2-fluorophenyl)-5-oxo-4-(4-(trifluoromethyl)phenyl)-4,5-dihydro-1H-1,2,4-triazol-3-yl)propyl)-[1,1′-biphenyl]-3-yl)acetic acid], the IC50 on human PPAR γ (setting [1]) was 79000 nM.
As for `CCOc1ccc(-c2ccc(CCCc3nn(-c4ccc(C(C)(C)C)cc4)c(=O)n3-c3c(Cl)cccc3Cl)cc2)cc1CC(=O)O` [Example 28], the IC50 was found to be 165 nM against Human PPARα, 789 nM on human PPAR β/δ and 32900 nM at human PPAR γ (setting [1]).
In the case of `CCCOc1ccc(-c2ccc(CCCc3nn(-c4ccc(C(F)(F)F)cc4)c(=O)n3-c3ccccc3F)cc2)cc1CC(=O)O` [Example 39, 2-(4-propoxy-4′-(3-(4-(2-fluorophenyl)-5-oxo-1-(4-(trifluoromethyl)phenyl)-4,5-dihydro-1H-1,2,4-triazol-3-yl)propyl)-[1,1′-biphenyl-]-3-yl)acetic acid], the IC50 amounted to 111 nM on Human PPARα, 34 nM on human PPAR β/δ and 20000 nM on human PPAR γ (setting [1]).
For `Cc1cc(CCCc2nn(-c3ccc(C(F)(F)F)cc3)c(=O)n2-c2ccccc2F)ccc1-c1ccc(C(F)(F)F)c(C(=O)O)c1` [Example 10, 4′-(3-(4-(2-fluorophenyl)-5-oxo-1-(4-(trifluoromethyl)phenyl)-4,5-dihydro-1H-1,2,4-triazol-3-yl)propyl)-2′-methyl-(4-trifluoromethyl)-[1,1′-biphenyl-]-3-carboxylic acid], the IC50 was found to be 192 nM on Human PPARα, 198 nM on human PPAR β/δ and 28100 nM on human PPAR γ (setting [1]).
As for `CCOc1ccc(-c2ccc(CCCc3nn(-c4ccc(C(C)C)cc4)c(=O)n3-c3ccccc3Cl)cc2)cc1CC(=O)O` [Example 27, 2-(4′-(3-(4-(2-chlorophenyl)-1-(4-isopropylphenyl)-5-oxo-4,5-dihydro-1H-1,2,4-triazol-3-yl)propyl)-4-ethoxy-[1,1′-biphenyl-]-3-yl)acetic acid], the values for the IC50 against Human PPARα, at human PPAR β/δ and on human PPAR γ (setting [1]) were 28 nM, 236 nM and 28900 nM, respectively.
On to `CCOc1ccc(-c2ccc(CCCc3nn(-c4ccc(OC(F)(F)F)cc4)c(=O)n3C3CCCCC3)cc2)cc1CC(=O)O` [Example 8, 2-(4′-(3-(4-cyclohexyl-5-oxo-1-(4-(trifluoromethoxy)phenyl)-4,5-dihydro-1H-1,2,4-triazol-3-yl)propyl)-4-ethoxy-[1,1% biphenyl]-3-yl)acetic acid], for which the IC50 came out at 29 nM against Human PPARα, 505 nM at human PPAR β/δ and 27100 nM at human PPAR γ (setting [1]).
At human PPAR γ, `CCOc1ccc(-c2ccc(CCCc3nn(-c4ccc(C(F)(F)F)cc4)c(=O)n3-c3ccccc3OC)cc2)cc1CC(=O)O` [Example 26] came in with an IC50 of 14900 nM.
Turning to `CCOc1ccc(-c2ccc(CCCc3nn(-c4ccc(C(F)(F)F)cc4)c(=O)n3C3CCC(C)CC3)cc2)cc1CC(=O)O` (stereo not drawn) [Example 5], the IC50 was found to be 109 nM against Human PPARα, 125 nM on human PPAR β/δ and 40000 nM at human PPAR γ (setting [1]).
`CCCn1c(CCCc2ccc(-c3ccc(OCC)c(CC(=O)O)c3)cc2)nn(-c2ccc(C(F)(F)F)cc2)c1=O` [Example 3, 2-(4-ethoxy-4′-(3-(5-oxo-4-propyl-1-(4-(trifluoromethyl)phenyl)-4,5-dihydro-1H-1,2,4-triazol-3-yl)propyl)-[1,1′-biphenyl]-3-yl)acetic acid]: the IC50 at Human PPARα was 113 nM; on human PPAR β/δ it was 474 nM; at human PPAR γ (setting [1]), 50000 nM.
For `CCCOc1ccc(-c2ccc(CCCc3nn(-c4ccc(C(F)(F)F)cc4)c(=O)n3C3CC3)cc2)cc1CC(=O)O` [Example 17, 2-(4′-(3-(4-cyclopropyl-5-oxo-1-(4-(trifluoromethyl)phenyl)-4,5-dihydro-1H-1,2,4-triazol-3-yl)propyl)-4-propoxy-[1,1′-biphenyl-]-3-yl)acetic acid], the IC50 worked out at 43 nM against Human PPARα, 485 nM on human PPAR β/δ and 30700 nM at human PPAR γ (setting [1]).
With `CCOc1ccc(-c2ccc(CCCc3nn(-c4ccc(C(F)(F)F)cc4)c(=O)n3-c3cc(F)ccc3F)cc2)cc1CC(=O)O` [Example 22], the values for the IC50 against Human PPARα, at human PPAR β/δ and at human PPAR γ (setting [1]) were 88 nM, 61 nM and 44500 nM, respectively.
The like results for `COc1ccc(-c2ccc(CCCc3nn(-c4ccc(C(F)(F)F)cc4)c(=O)n3Cc3ccccc3F)cc2)cc1CC(=O)O` [Example 15, 2-(4′-(3-(4-(2-fluorobenzyl)-5-oxo-1-(4-(trifluoromethyl)phenyl)-4,5-dihydro-1H-1,2,4-triazol-3-yl)propyl)-4-methoxy-[1,1′-biphenyl]-3-yl)acetic acid] were, in that order, 38800 nM, 8360 nM and above 100000 nM.
For the molecule `CCOc1ccc(-c2ccc(CCCc3nn(-c4ccc(C(F)(F)F)cc4Cl)c(=O)n3-c3ccccc3F)cc2)cc1CC(=O)O` [Example 33, 2-(4-ethoxy-4′-(3-(4-(2-fluorophenyl)-5-oxo-1-(2-chloro-4-(trifluoromethyl)phenyl)-4,5-dihydro-1H-1,2,4-triazol-3-yl)propyl)-[1,1′-biphenyl]-3-yl)acetic acid], the IC50 worked out at 138 nM at Human PPARα, 746 nM on human PPAR β/δ and 32300 nM on human PPAR γ (setting [1]).
